Measurements from patent US20230143604A1, “QW DOSING OF GIP RECEPTOR AGONIST PEPTIDE COMPOUNDS AND USES THEREOF” (TAKEDA PHARMACEUTICAL COMPANY LIMITED, priority 2020, published 2023).
Starred links: 1 amine or outer side, 2 acyl side, 3 side chain; linkers in the order of their positions; H or OH if unused. Non-standard residues stand in square brackets, D forms with d. Residues, ends and D or L forms follow the SMILES beside them. Groups on a side chain read outwards from the residue. *: point of attachment. C20 diacid = O=C(O)CCCCCCCCCCCCCCCCCCC(=O)*; C18 diacid = O=C(O)CCCCCCCCCCCCCCCCC(=O)*; C17 diacid = O=C(O)CCCCCCCCCCCCCCCC(=O)*; γGlu = O=C(O)[C@H](CCC(=O)[*:2])N[*:1]; NMeY = CN[C@@H](Cc1ccc(O)cc1)C(=O)O; AEEA = NCCOCCOCC(=O)O; Aib = CC(C)(N)C(=O)O

Assay: Solubility in phosphate buffer pH 7.4
How it was run: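 Solubility at pH 7.4 determined by stepwise addition of 200 mM phosphate buffer in 100 μL increments to 3 mg peptide, mixing briefly each time, until no insoluble material remained, then measured by liquid chromatography.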

[1] = pH 7.4, aqueous buffer, pH 7.4 Phosphate Buffer - Solubility, 200 mM Phosphate buffer pH 7.4
[2] = pH 7.4, solubility in phosphate buffer at pH 7.4, 200 mM phosphate buffer pH 7.4

SMILES | solubility [1] | solubility [2]
CC[C@H](C)[C@H](NC(=O)[C@H](Cc1ccccc1)NC(=O)[C@@H](NC(=O)CNC(=O)[C@H](CCC(=O)O)NC(=O)C(C)(C)NC(=O)[C@H](Cc1ccc(O)cc1)NC)[C@@H](C)O)C(=O)N[C@@H](CO)C(=O)N[C@@H](CC(=O)O)C(=O)N[C@@H](Cc1ccc(O)cc1)C(=O)N[C@@H](CO)C(=O)N[C@H](C(=O)NC(C)(C)C(=O)N[C@@H](CC(C)C)C(=O)N[C@@H](CC(=O)O)C(=O)N[C@@H](CCCNC(=N)N)C(=O)NC(C)(C)C(=O)N[C@@H](C)C(=O)N[C@@H](CCC(N)=O)C(=O)NC(C)(C)C(=O)N[C@@H](CCCCNC(=O)COCCOCCNC(=O)COCCOCCNC(=O)CC[C@H](NC(=O)CC[C@H](NC(=O)CCCCCCCCCCCCCCCC(=O)O)C(=O)O)C(=O)O)C(=O)N[C@@H](Cc1ccccc1)C(=O)N[C@H](C(=O)N[C@@H](CC(N)=O)C(=O)N[C@@H](Cc1c[nH]c2ccccc12)C(=O)N[C@@H](CC(C)C)C(=O)N[C@@H](CC(C)C)C(=O)N[C@@H](C)C(=O)N[C@@H](CCC(N)=O)C(=O)N[C@@H](CO)C(=O)N1CCC[C@H]1C(=O)N[C@@H](CO)C(=O)N[C@@H](CO)C(=O)NCC(=O)N[C@@H](C)C(=O)N1CCC[C@H]1C(=O)N1CCC[C@H]1C(=O)N1CCC[C@H]1C(=O)N[C@@H](CO)C(N)=O)C(C)C)[C@@H](C)CC [Compound 94] (H-[NMeY][Aib]EGTFISDYSI[Aib]LDR[Aib]AQ[Aib]K([AEEA-AEEA-γGlu-γGlu-C17 diacid])FVNWLLAQSPSSGAPPPS-NH2) | ≥ 60 mg/mL | ≥ 15 mg/mL
CC[C@H](C)[C@H](NC(=O)[C@H](CO)NC(=O)[C@H](Cc1ccc(O)cc1)NC(=O)[C@H](CC(=O)O)NC(=O)[C@H](CO)NC(=O)[C@@H](NC(=O)[C@H](Cc1ccccc1)NC(=O)[C@@H](NC(=O)CNC(=O)[C@H](CCC(=O)O)NC(=O)C(C)(C)NC(=O)[C@H](Cc1ccc(O)cc1)NC)[C@@H](C)O)[C@@H](C)CC)C(=O)N[C@@H](C)C(=O)N[C@@H](CC(C)C)C(=O)N[C@@H](CC(=O)O)C(=O)N[C@@H](CCCNC(=N)N)C(=O)NC(C)(C)C(=O)N[C@@H](C)C(=O)N[C@@H](CCC(N)=O)C(=O)NC(C)(C)C(=O)N[C@@H](CCCCNC(=O)COCCOCCNC(=O)COCCOCCNC(=O)CC[C@H](NC(=O)CC[C@H](NC(=O)CCCCCCCCCCCCCCCCC(=O)O)C(=O)O)C(=O)O)C(=O)N[C@@H](Cc1ccccc1)C(=O)N[C@H](C(=O)N[C@@H](CC(N)=O)C(=O)N[C@@H](Cc1c[nH]c2ccccc12)C(=O)N[C@@H](CC(C)C)C(=O)N[C@@H](CC(C)C)C(=O)N[C@@H](C)C(=O)N[C@@H](CCC(N)=O)C(=O)N[C@@H](CO)C(=O)N1CCC[C@H]1C(=O)N[C@@H](CO)C(=O)N[C@@H](CO)C(=O)NCC(=O)N[C@@H](C)C(=O)N1CCC[C@H]1C(=O)N1CCC[C@H]1C(=O)N1CCC[C@H]1C(=O)N[C@@H](CO)C(N)=O)C(C)C [Compound 97] (H-[NMeY][Aib]EGTFISDYSIALDR[Aib]AQ[Aib]K([AEEA-AEEA-γGlu-γGlu-C18 diacid])FVNWLLAQSPSSGAPPPS-NH2) | ≥ 60 mg/mL | ≥ 15 mg/mL
CC[C@H](C)[C@H](NC(=O)[C@H](CO)NC(=O)[C@H](Cc1ccc(O)cc1)NC(=O)[C@H](CC(=O)O)NC(=O)[C@H](CO)NC(=O)[C@@H](NC(=O)[C@H](Cc1ccccc1)NC(=O)[C@@H](NC(=O)CNC(=O)[C@H](CCC(=O)O)NC(=O)C(C)(C)NC(=O)[C@H](Cc1ccc(O)cc1)NC)[C@@H](C)O)[C@@H](C)CC)C(=O)N[C@@H](C)C(=O)N[C@@H](CC(C)C)C(=O)N[C@@H](CC(=O)O)C(=O)N[C@@H](CCCNC(=N)N)C(=O)NC(C)(C)C(=O)N[C@@H](CCCCNC(=O)COCCOCCNC(=O)COCCOCCNC(=O)CC[C@H](NC(=O)CC[C@H](NC(=O)CCCCCCCCCCCCCCCCCCC(=O)O)C(=O)O)C(=O)O)C(=O)N[C@@H](CCC(N)=O)C(=O)NC(C)(C)C(=O)N[C@@H](CC(N)=O)C(=O)N[C@@H](Cc1ccccc1)C(=O)N[C@H](C(=O)N[C@@H](CC(N)=O)C(=O)N[C@@H](Cc1c[nH]c2ccccc12)C(=O)N[C@@H](CC(C)C)C(=O)N[C@@H](CC(C)C)C(=O)N[C@@H](C)C(=O)N[C@@H](CCC(N)=O)C(=O)N[C@@H](CO)C(=O)N1CCC[C@H]1C(=O)N[C@@H](CO)C(=O)N[C@@H](CO)C(=O)NCC(=O)N[C@@H](C)C(=O)N1CCC[C@H]1C(=O)N1CCC[C@H]1C(=O)N1CCC[C@H]1C(=O)N[C@@H](CO)C(N)=O)C(C)C [Compound 99] (H-[NMeY][Aib]EGTFISDYSIALDR[Aib]K([AEEA-AEEA-γGlu-γGlu-C20 diacid])Q[Aib]NFVNWLLAQSPSSGAPPPS-NH2) | ≥ 60 mg/mL | 
CC[C@H](C)[C@H](NC(=O)[C@H](Cc1ccccc1)NC(=O)[C@@H](NC(=O)CNC(=O)[C@H](CCC(=O)O)NC(=O)C(C)(C)NC(=O)[C@H](Cc1ccc(O)cc1)NC)[C@@H](C)O)C(=O)N[C@@H](CO)C(=O)N[C@@H](CC(=O)O)C(=O)N[C@@H](Cc1ccc(O)cc1)C(=O)N[C@@H](CO)C(=O)N[C@H](C(=O)NC(C)(C)C(=O)N[C@@H](CC(C)C)C(=O)N[C@@H](CC(=O)O)C(=O)N[C@@H](CCCNC(=N)N)C(=O)NC(C)(C)C(=O)N[C@@H](CCCCNC(=O)COCCOCCNC(=O)COCCOCCNC(=O)CC[C@H](NC(=O)CC[C@H](NC(=O)CCCCCCCCCCCCCCCCC(=O)O)C(=O)O)C(=O)O)C(=O)N[C@@H](CCC(N)=O)C(=O)NC(C)(C)C(=O)N[C@@H](CC(N)=O)C(=O)N[C@@H](Cc1ccccc1)C(=O)N[C@H](C(=O)N[C@@H](CC(N)=O)C(=O)N[C@@H](Cc1c[nH]c2ccccc12)C(=O)N[C@@H](CC(C)C)C(=O)N[C@@H](CC(C)C)C(=O)N[C@@H](C)C(=O)N[C@@H](CCC(N)=O)C(=O)N[C@@H](CO)C(=O)N1CCC[C@H]1C(=O)N[C@@H](CO)C(=O)N[C@@H](CO)C(=O)NCC(=O)N[C@@H](C)C(=O)N1CCC[C@H]1C(=O)N1CCC[C@H]1C(=O)N1CCC[C@H]1C(=O)N[C@@H](CO)C(N)=O)C(C)C)[C@@H](C)CC [Compound 100] (H-[NMeY][Aib]EGTFISDYSI[Aib]LDR[Aib]K([AEEA-AEEA-γGlu-γGlu-C18 diacid])Q[Aib]NFVNWLLAQSPSSGAPPPS-NH2) | ≥ 60 mg/mL | ≥ 15 mg/mL
CC[C@H](C)[C@H](NC(=O)[C@H](Cc1ccccc1)NC(=O)[C@@H](NC(=O)CNC(=O)[C@H](CCC(=O)O)NC(=O)C(C)(C)NC(=O)[C@H](Cc1ccc(O)cc1)NC)[C@@H](C)O)C(=O)N[C@@H](CO)C(=O)N[C@@H](CC(=O)O)C(=O)N[C@@H](Cc1ccc(O)cc1)C(=O)N[C@@H](CO)C(=O)N[C@H](C(=O)NC(C)(C)C(=O)N[C@@H](CC(C)C)C(=O)N[C@@H](CC(=O)O)C(=O)N[C@@H](CCCNC(=N)N)C(=O)NC(C)(C)C(=O)N[C@@H](C)C(=O)N[C@@H](CCC(N)=O)C(=O)NC(C)(C)C(=O)N[C@@H](CCCCNC(=O)COCCOCCNC(=O)COCCOCCNC(=O)CC[C@H](NC(=O)CC[C@H](NC(=O)CCCCCCCCCCCCCCCCCCC(=O)O)C(=O)O)C(=O)O)C(=O)N[C@@H](Cc1ccccc1)C(=O)N[C@H](C(=O)N[C@@H](CC(N)=O)C(=O)N[C@@H](Cc1c[nH]c2ccccc12)C(=O)N[C@@H](CC(C)C)C(=O)N[C@@H](CC(C)C)C(=O)N[C@@H](C)C(=O)N[C@@H](CCC(N)=O)C(=O)N[C@@H](CCCNC(=N)N)C(=O)N1CCC[C@H]1C(=O)N[C@@H](CO)C(=O)N[C@@H](CO)C(=O)NCC(=O)N[C@@H](C)C(=O)N1CCC[C@H]1C(=O)N1CCC[C@H]1C(=O)N1CCC[C@H]1C(=O)N[C@@H](CO)C(N)=O)C(C)C)[C@@H](C)CC [Compound 101] (H-[NMeY][Aib]EGTFISDYSI[Aib]LDR[Aib]AQ[Aib]K([AEEA-AEEA-γGlu-γGlu-C20 diacid])FVNWLLAQRPSSGAPPPS-NH2) | ≥ 60 mg/mL | ≥ 15 mg/mL
CC[C@H](C)[C@H](NC(=O)[C@H](Cc1ccccc1)NC(=O)[C@@H](NC(=O)CNC(=O)[C@H](CCC(=O)O)NC(=O)C(C)(C)NC(=O)[C@H](Cc1ccc(O)cc1)NC)[C@@H](C)O)C(=O)N[C@@H](CO)C(=O)N[C@@H](CC(=O)O)C(=O)N[C@@H](Cc1ccc(O)cc1)C(=O)N[C@@H](CO)C(=O)N[C@H](C(=O)NC(C)(C)C(=O)N[C@@H](CC(C)C)C(=O)N[C@@H](CC(=O)O)C(=O)N[C@@H](CCCNC(=N)N)C(=O)NC(C)(C)C(=O)N[C@@H](C)C(=O)N[C@@H](C)C(=O)NC(C)(C)C(=O)N[C@@H](CCCCNC(=O)COCCOCCNC(=O)COCCOCCNC(=O)CC[C@H](NC(=O)CC[C@H](NC(=O)CCCCCCCCCCCCCCCCC(=O)O)C(=O)O)C(=O)O)C(=O)N[C@@H](Cc1ccccc1)C(=O)N[C@H](C(=O)N[C@@H](CC(N)=O)C(=O)N[C@@H](Cc1c[nH]c2ccccc12)C(=O)N[C@@H](CC(C)C)C(=O)N[C@@H](CC(C)C)C(=O)N[C@@H](C)C(=O)N[C@@H](CCC(N)=O)C(=O)N[C@@H](CCCNC(=N)N)C(=O)N1CCC[C@H]1C(=O)N[C@@H](CO)C(=O)N[C@@H](CO)C(=O)NCC(=O)N[C@@H](C)C(=O)N1CCC[C@H]1C(=O)N1CCC[C@H]1C(=O)N1CCC[C@H]1C(=O)N[C@@H](CO)C(N)=O)C(C)C)[C@@H](C)CC [Compound 106] (H-[NMeY][Aib]EGTFISDYSI[Aib]LDR[Aib]AA[Aib]K([AEEA-AEEA-γGlu-γGlu-C18 diacid])FVNWLLAQRPSSGAPPPS-NH2) | ≥ 30 mg/mL | ≥ 15 mg/mL
